For test [1], the target named is T1, Tyrosyl DNA Phosphodiesterase 2 (TDP2) (Homo sapiens, UniProt O95551).
T1 sequence (O95551 1-362): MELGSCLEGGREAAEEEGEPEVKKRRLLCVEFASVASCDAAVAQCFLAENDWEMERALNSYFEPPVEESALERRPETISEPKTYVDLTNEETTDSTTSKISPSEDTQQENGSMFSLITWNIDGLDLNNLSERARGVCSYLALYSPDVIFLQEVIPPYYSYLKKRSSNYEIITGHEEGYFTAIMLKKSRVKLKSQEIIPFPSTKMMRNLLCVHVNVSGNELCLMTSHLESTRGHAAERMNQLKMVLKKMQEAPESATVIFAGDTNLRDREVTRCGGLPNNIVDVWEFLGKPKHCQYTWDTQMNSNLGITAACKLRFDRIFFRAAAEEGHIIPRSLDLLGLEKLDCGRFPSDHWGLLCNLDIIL
The experiment in a line: High-throughput screening for TDP2 inhibitory activity. It counts as biochemical.

The test system of test [2] is human lung cancer cells. The experiment in a line: Synergy with Etoposide in killing cancer cells in vitro. It counts as cell-based.
The test system of test [3] is LPS-induced ear inflammation. Put plainly: Anti-inflammatory efficacy in LPS-induced local ear inflammation. In kind it is in vivo, mice. The conditions noted are these: treatment 30 min after LPS; DXM 5 mg/kg where loaded. The protocol: Explanted mouse ears were washed twice with PBS and embedded in a cryomold in O.C.T. (Tissue-Tek® O.C.T. Compound, Sakura® Finetek), and instantly frozen at −80° C. Ten μm-thick slides were obtained cutting ears block with a cryostat at −20° C. The slides were stored at −20° C. For hematoxylin and eosin (H/E) staining, slides were thawed, hydrated, washed and stained with hematoxylin and eosin (Sigma-Aldrich).
Once cryo-sections were obtained as described in the previous paragraph, immunofluorescence (IF) staining was performed as previously reported (Gelain et al., 2010). Briefly, slides were thawed and blocked with BSA 5% (Sigma-Aldrich) PBS 1× solution. After washing, they were incubated overnight at 4° C. with anti-neutrophil antibody (Alexa Fluor® 647 anti-mouse Ly-6G/Ly-6C (Gr-1) Biolegend. Excess anti-neutrophil antibody was washed out with PBS 1X. Cells nuclei were stained with DAPI. Slides were sealed with ProLong Gold antifade reagent (Life Technologies™). Images were captured with an Eclipse® Ti Inverted Fluorescent Microscope equipped with Hamamatsu Digital Camera C11440 ORCA-Flash 2.8.
Particles were administrated 30 min after LPS injection.
Explanted Mice ears were washed twice with PBS and embedded in a cryomold in O.C.T. (Tissue-Tek® O.C.T. Compound, Sakura® Finetek), and instantly frozen at −80° C. […]

For `COc1cc2c(cc1OC)-c1c(OC)c(OC)cc3c1[C@H](C2)N(C)CC3` [Glaucine], the TDP2 inhibitory activity entry in test [1] was “TDP2 inhibitor”. The “synergy with Etoposide in cancer cell killing” value in test [2] is recorded as “able to enhance Etoposide mediated cancer cell killing”.
As to `C[C@@H]1C[C@H]2[C@@H]3CCC4=CC(=O)C=C[C@]4(C)[C@@]3(F)[C@@H](O)C[C@]2(C)[C@@]1(O)C(=O)CO` [free DXM, Dexamethasone], the “tissue architecture (H&E staining)” value in test [3] is “alteration of tissue architecture”.

Values taken from US20190167589A1, “BIOMIMETIC PROTEOLIPID VESICLE COMPOSITIONS AND USES THEREOF” (The Methodist Hospital, priority 2016, published 2019).
